Here are results for 5 compounds from ChEMBL document CHEMBL1201862, “PubChem BioAssay data set” (2004).

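Cultured in 96-well plates, cells were exposed to test compound for 48 hours across five concentrations. At the GI50, growth is halved.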 Activity calls are given as the source filed them. Rule as the data show it: active = GI50 up to about 1.1 µM and inactive = higher.

Test systems include A549; HT-29; UACC-62; SK-MEL-2; SF-268; NCI-H460; CCRF-CEM; K562; COLO 205; LOX IMVI; UACC-257; SNB-78; SK-MEL-5; OVCAR-5; KM-20L2; T47D; Hs-578T; DU-145; MDA-MB-435; MCF7.
Common to all, as to assay: NCI tumour cell line growth inhibition, 48 h

Consider `COC(=O)C[C@H]1CCC2(OCCO2)[C@]1(C)C(=O)OC`, for which the GI50 in the assay on A549, in the assay with HT-29, in the assay on UACC-62, in the assay with SK-MEL-2, in the assay with SF-268 and in the assay on NCI-H460 was > 100 µM (inactive) each time. For the same compound, the GI50 in the assay on CCRF-CEM, in the assay on K562, in the assay with COLO 205, with LOX IMVI, in the assay on UACC-257 and with SNB-78 was > 100 µM (inactive) throughout. In addition, the GI50 with SK-MEL-5 and in the assay on OVCAR-5 was > 100 µM (inactive) each time.
Take `COc1ccc([C@@H]2CC(=O)NCCCCNCCCN2)cc1`: the GI50 in the assay on A549, in the assay with HT-29, in the assay with KM-20L2, in the assay with UACC-62, in the assay on SK-MEL-2 and in the assay on SF-268 was > 100 µM (inactive) in each case. Besides, the GI50 with NCI-H460, with CCRF-CEM, in the assay on K562, in the assay on COLO 205, in the assay on UACC-257 and in the assay on SNB-78 was > 100 µM (inactive) each time. Moreover, the GI50 in the assay on SK-MEL-5 and with OVCAR-5 was > 100 µM (inactive) throughout.
For `CC[C@@]1(O)C(=O)OCc2c1cc1n(c2=O)Cc2cc3c(OC)cccc3nc2-1`, the GI50 was 0.0194 µM (active) in the assay with T47D; 0.0622 µM (active) in the assay with KM-20L2; < 0.1 µM (active) in the assay with UACC-62; 0.834 µM (active) in the assay on SK-MEL-2; < 0.1 µM (active) with SF-268; < 0.01 µM (active) with CCRF-CEM. For the same compound, the GI50 in the assay on K562 was 0.171 µM (active); in the assay on COLO 205 it was 1.21 µM (inactive); in the assay on LOX IMVI, < 0.1 µM (active); in the assay on Hs-578T it was 12.8 µM (inactive); in the assay with UACC-257 it was 0.558 µM (active); in the assay on SK-MEL-5, 0.116 µM (active). In the assay with OVCAR-5, the GI50 is 0.417 µM (active).
For `N#CC(NNC(=O)Cc1ccccc1)c1ccccc1O` (centres undefined), the GI50 in the assay on T47D was 2.62 µM (inactive); in the assay on DU-145, 20.8 µM (inactive); with A549, 10.3 µM (inactive); in the assay on MDA-MB-435, 27.7 µM (inactive); with HT-29, 9.18 µM (inactive); in the assay on UACC-62, 5.28 µM (inactive). In addition, the GI50 in the assay on SK-MEL-2 was 30.3 µM (inactive); in the assay with SF-268 it was 9.04 µM (inactive); in the assay with NCI-H460, 6.84 µM (inactive); in the assay on CCRF-CEM it was 4 µM (inactive); in the assay on K562 it was 11.3 µM (inactive); in the assay with COLO 205, 12.1 µM (inactive). Also, the GI50 in the assay with LOX IMVI was 4.98 µM (inactive); with Hs-578T it was 56.2 µM (inactive); in the assay with UACC-257, 14 µM (inactive); with MCF7 it was 10.2 µM (inactive); in the assay on SNB-78, 80.5 µM (inactive); with SK-MEL-5 it was 10.6 µM (inactive). The GI50 in the assay on OVCAR-5 is 26.9 µM (inactive).
Regarding `COC(=O)[C@@H](C)[C@H]1CC[C@@](C)(CCC2=C(C)CC3C=C(C)CCC3C2(C)C)OO1` (some centres undefined), the GI50 in the assay with A549 was 1.6 µM (inactive); with HT-29 it was 1.42 µM (inactive); with KM-20L2 it was 1.7 µM (inactive); in the assay with UACC-62, 1.94 µM (inactive); in the assay with SK-MEL-2 it was 1.59 µM (inactive); in the assay with SF-268 it was 1.85 µM (inactive). Also, the GI50 was 1.5 µM (inactive) in the assay on NCI-H460; 0.165 µM (active) with CCRF-CEM; 1.3 µM (inactive) with K562; 1.66 µM (inactive) with COLO 205; 2.99 µM (inactive) in the assay with UACC-257; 2.23 µM (inactive) in the assay with SNB-78. For the same compound, the GI50 with SK-MEL-5 is 1.49 µM (inactive); in the assay with OVCAR-5, 1.87 µM (inactive).
